Laboratory results: US9695193B2, “Inhibitors of Plasmodium falciparum equilibrative nucleoside transporter type I as anti-parasitic compounds” (The Trustees of Columbia University in the City of New York, priority 2013, dated 2017)

Biological target: T1, PfENT1 (Plasmodium falciparum, UniProt Q8IDM6)
T1 construct: expressed in transfected cells; host or cells: fui1Δ yeast (Saccharomyces cerevisiae), co-expressing GFP
Type: cell-based
Settings: primary HTS, compounds at 10 μM, 125 μM 5-FUrd
Protocol: A yeast-based high throughput screening (HTS) assay was used to identify compounds that inhibit PfENT1. The compounds described in this application were identified by screening four commercially available, chemical compound libraries obtained from Dr. Donald Landry's laboratory (Department of Medicine, Columbia University). These libraries contain approximately 80,000 unique chemical entities.
In the primary screen the compounds were tested at a concentration of 10 μM. Hits were identified by the growth of fui1Δ yeast expressing PfENT1 and Green Fluorescent Protein (GFP) in the presence of the cytotoxic nucleoside 5-fluorouridine (5-FUrd). 5-FUrd is transported by PfENT1. PfENT1 expressing fui1Δ yeast will only grow in the presence of 125 μM 5-FUrd if a PfENT1 inhibitor blocks the uptake of 5-FUrd into the yeast. Significant yeast growth in the HTS in 384 well plates was determined by two criteria: 1) turbidity as determined by the optical density at 620 nm (OD620) and 2) GFP fluorescence intensity. […] Hits had to be positive by both criteria.

T1 sequence (Q8IDM6 whole entry): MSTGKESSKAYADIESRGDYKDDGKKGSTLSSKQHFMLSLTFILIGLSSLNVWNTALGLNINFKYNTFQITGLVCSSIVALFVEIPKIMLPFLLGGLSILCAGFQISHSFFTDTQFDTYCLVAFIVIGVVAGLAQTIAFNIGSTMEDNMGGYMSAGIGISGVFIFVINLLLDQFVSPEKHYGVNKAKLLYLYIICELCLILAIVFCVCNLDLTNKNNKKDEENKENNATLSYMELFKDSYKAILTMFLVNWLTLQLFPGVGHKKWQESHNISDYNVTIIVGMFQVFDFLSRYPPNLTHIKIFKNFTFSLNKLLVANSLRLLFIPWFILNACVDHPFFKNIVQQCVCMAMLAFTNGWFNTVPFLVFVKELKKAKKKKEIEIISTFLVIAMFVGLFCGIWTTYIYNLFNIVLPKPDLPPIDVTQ

Compound | Avg Normalized % maximal activity
O=C(COc1ccccc1Cl)Nc1ccc(C(=O)N2CCCCC2)cc1 [compound 8, 2-(2-chlorophenoxy)-N-[4-(1-piperidinylcarbonyl)phenyl]acetamide] | 54.23%
COc1cccc(C(=O)Nc2cccc(-c3nnc(-c4ccco4)o3)c2)c1 [compound 9, N-{3-[5-(2-furyl)-1,3,4-oxadiazol-2-yl]phenyl}-3-methoxybenzamide] | 54.12%
Cc1nc(NC(=O)c2sc3ccccc3c2Cl)sc1C(=O)N(C)C [compound 10, 2-{[(3-chloro-1-benzothien-2-yl)carbonyl]amino}-N,N,4-trimethyl-1,3-thiazole-5-carboxamide] | 45.82%
O=C(Nc1cccc(-c2nc3ncccc3o2)c1)c1ccco1 [compound 11, N-(3-[1,3]oxazolo[4,5-b]pyridin-2-ylphenyl)-2-furamide] | 32.85%
Cc1cc(=O)oc2cc(OCc3nnc(-c4ccccc4)o3)ccc12 [compound 12, 4-methyl-7-[(5-phenyl-1,3,4-oxadiazol-2-yl)methoxy]-2H-chromen-2-one] | 31.72%
Cc1ccnc(NC(=O)c2ccc(NC(=O)c3ccco3)cc2)c1 [compound 14, N-(4-{[(4-methyl-2-pyridinyl)amino]carbonyl}phenyl)-2-furamide] | 24.47%
COc1ccc(-c2cnc3ccccc3n2)cc1NC(=O)c1ccncc1 [compound 15] | 24.18%
COc1ccc(C(=O)Nc2cccc(-c3nc4ncccc4o3)c2)cc1 [compound 16, 4-methoxy-N-(3-[1,3]oxazolo [4,5-b]pyridin-2-ylphenyl)benzamide] | 23.87%
CCN(CC)C(=O)COc1ccc2c(c1)oc(=O)c1cc(OC)ccc12 [compound 17, N,N-diethyl-2-[(8-methoxy-6-oxo-6H-benzo [c]chromen-3-yl)oxy]acetamide] | 22.15%
O=c1[nH]c(/C=C/c2ccccc2Cl)nc2ccccc12 [compound 18, 2-[2-(2-chlorophenyl)vinyl]-4(3H)-quinazolinone] | 21.82%
O=C(Nc1cccc(-c2cn3ccsc3n2)c1)c1ccccc1F [compound 20, 2-fluoro-N-(3-imidazo[2,1-b][1,3]thiazol-6-ylphenyl)benzamide] | 19.78%
CC1CCc2sc3ncnc(N4CCN(C(=O)c5ccco5)CC4)c3c2C1 (stereo not shown) [compound 21, 4-[4-(2-furoyl)-1-piperazinyl]-6-methyl-5,6,7,8-tetrahydro[1] benzothieno[2,3-d]pyrimidine] | 17.70%
Cc1nc(NC(=O)c2oc3ccccc3c2C)sc1C(=O)N(C)C [compound 22, N,N,4-trimethyl-2-{[(3-methyl-1-benzofuran-2-yl)carbonyl]amino}-1,3-thiazole-5-carboxamide] | 17.36%
Fc1ccc(C2CC(c3ccco3)n3ncnc3N2)cc1 (stereo not shown) [compound 23, 5-(4-fluorophenyl)-7-(2-furyl)-4,5,6,7-tetrahydro[1,2,4] triazolo[1,5-a]pyrimidine] | 16.77%
O=C(Nc1nc2c(s1)C(=O)CCC2)c1ccccc1Cl [compound 24, 2-chloro-N-(7-oxo-4,5,6,7-tetrahydro-1,3-benzothiazol-2-yl)benzamide] | 16.16%
CCOc1ccc(-c2noc(CCCC(=O)N3CCCCC3)n2)cc1OC [compound 25, 1-{4-[3-(4-ethoxy-3-methoxyphenyl)-1,2,4-oxadiazol-5-yl]butanoyl} piperidine] | 15.69%
O=C(Nc1ccc(-c2nnc(-c3ccco3)o2)cc1)C1CCCO1 (stereo not shown) [compound 26, N-{4-[5-(2-furyl)-1,3,4-oxadiazol-2-yl]phenyl}tetrahydro-2-furancarboxamide] | 15.22%
COc1ccc(-c2nc3ccccc3o2)cc1NC(=O)c1cccnc1 [compound 27, N-[5-(1,3-benzoxazol-2-yl)-2-methoxyphenyl] nicotinamide] | 14.03%
Cc1ccccc1C(=O)Nc1ccc2c(C)cc(=O)oc2c1 [compound 28] | 13.98%
COc1ccc(-c2nnc(OC)c3ccccc23)cc1 [compound 29, 1-methoxy-4-(4-methoxyphenyl) phthalazine] | 13.58%
O=C(Nc1ccc(-c2nnc(-c3ccccc3)o2)cc1)c1ccco1 [compound 30, N-[4-(5-phenyl-1,3,4-oxadiazol-2-yl)phenyl]-2-furamide] | 13.43%
CCOc1ccccc1NC(=O)c1cccc(NC(=O)c2ccco2)c1 [compound 31, N-(3-{[(2-ethoxyphenyl)amino]carbonyl}phenyl)-2-furamide] | 13.00%

Compound | Avg Normalized % maximal activity
COc1ccc(Cl)cc1Nc1nnc(-c2cnccn2)s1 [compound 32, N-(5-chloro-2-methoxyphenyl)-5-(2-pyrazinyl)-1,3,4-thiadiazol-2-amine] | 12.03%
COC(=O)c1ccccc1NC(=O)c1cccc(NC(=O)c2ccco2)c1C [compound 33, methyl 2-{[3-(2-furoylamino)-2-methylbenzoyl]amino}benzoate] | 11.98%
Cc1c(/C=C/c2nc3ccccc3c(=O)[nH]2)c2ccccc2n1C [compound 34, 2-[2-(1,2-dimethyl-1H-indol-3-yl)vinyl]-4(3H)-quinazolinone] | 11.27%
COc1cccc(C(=O)Nc2ccc(-c3nnc(-c4ccco4)o3)cc2)c1 [compound 35, N-{4-[5-(2-furyl)-1,3,4-oxadiazol-2-yl]phenyl}-3-methoxybenzamide] | 11.40%
CCc1cccc(C)c1NS(=O)(=O)c1cccs1 [compound 36, N-(2-ethyl-6-methylphenyl)-2-thiophenesulfonamide] | 11.14%
COc1ccc(C(=O)Nc2ccc(-c3nc4ncccc4o3)cc2C)cc1OC [compound 37, 3,4-dimethoxy-N-(2-methyl-4-[1,3]oxazolo [4,5-b]pyridin-2-ylphenyl)benzamide] | 10.61%
C[C@@H]1C[C@@H](O[C@H]2[C@H](O[C@H]3CC[C@@]4(C)C(CC[C@]5(C)[C@@H]4CC=C4C6CC(C)(C)CC[C@]6(C(=O)O[C@@H]6O[C@H](CO[C@@H]7O[C@H](CO)[C@@H](O[C@@H]8O[C@@H](C)[C@H](O)[C@@H](O)[C@H]8O)[C@H](O)[C@H]7O)[C@@H](O)[C@H](O)[C@H]6O)CC[C@]45C)[C@]3(C)CO)OC[C@H](O)[C@@H]2O)[C@H](O)[C@H](O)[C@H]1O (stereo partly shown) [compound 38] | 10.61%
Cc1ccc2oc(-c3ccc(NC(=O)C4CCCO4)cc3)nc2c1 (stereo not shown) [compound 39, N-[4-(5-methyl-1,3-benzoxazol-2-yl)phenyl]tetrahydro-2-furancarboxamide] | 10.52%
CCOC(=O)c1cc(NC(=O)c2ccccc2F)ccc1N1CCOCC1 [compound 40, ethyl 5-[(2-fluorobenzoyl)amino]-2-(4-morpholinyl)benzoate] | 10.29%
Cc1cc(-c2nc3ncccc3o2)ccc1NC(=O)c1ccco1 [compound 41, N-(2-methyl-4-[1,3]oxazolo[4,5-b]pyridin-2-ylphenyl)-2-furamide] | 10.28%
O=C(Nc1ccc(-c2nnc(-c3ccccc3)o2)cc1)C1CCCO1 (stereo not shown) [compound 42, N-[4-(5-phenyl-1,3,4-oxadiazol-2-yl)phenyl]tetrahydro-2-furancarboxamide] | 10.16%
O=C(NC(=O)c1ccccc1)Nc1cc(N2CCOCC2)ncn1 [compound 43, N-({[6-(4-morpholinyl)-4-pyrimidinyl]amino}carbonyl) benzamide] | 9.52%
Cc1cccc(C(=O)Nc2ccc(-c3nnc(-c4ccco4)o3)cc2)c1 [compound 44, N-{4-[5-(2-furyl)-1,3,4-oxadiazol-2-yl]phenyl}-3-methylbenzamide] | 9.07%
O=C(CSc1nnc(-c2ccc(Cl)cc2Cl)o1)N1CCCCC1 [compound 45, 1-({[5-(2,4-dichlorophenyl)-1,3,4-oxadiazol-2-yl]thio}acetyl)piperidine] | 8.97%
Cc1nnc(SCc2csc(-c3ccc4c(c3)OCO4)n2)s1 [compound 46, 2-({[2-(1,3-benzodioxol-5-yl)-1,3-thiazol-4-yl]methyl}thio)-5-methyl-1,3,4-thiadiazole] | 8.94%
CCOCc1nnc(NC(=O)c2ccc(OC)cc2)s1 [compound 47] | 8.66%
CCc1ccc(C(C)NC(=O)c2nc[nH]n2)cc1 (stereo not shown) [compound 48, N-[1-(4-ethylphenyl)ethyl]-1H-1,2,4-triazole-3-carboxamide] | 8.44%
O=C(Nc1ccc(-c2nc3ccccc3o2)cc1)C1CCCO1 (stereo not shown) [compound 49, N-[4-(1,3-benzoxazol-2-yl)phenyl]tetrahydro-2-furancarboxamide] | 8.36%
CCOc1ccc(N(CC(=O)N2CCN(C)CC2)S(C)(=O)=O)cc1 [compound 50] | 8.23%
CCOC(=O)c1cc(NC(=O)c2ccco2)ccc1N1CCOCC1 [compound 51, ethyl 5-(2-furoylamino)-2-morpholin-4-ylbenzoate] | 8.11%
COC(=O)c1ccccc1NC(=O)c1cccc(NC(=O)C(C)C)c1 [compound 52] | 8.03%
